These results are taken from patent publication US20160068571A1, “THERAPEUTIC AGENT FOR CARDIAC TAMPONADE” (Research Institute for Protein Science Co., priority 2013, published 2016).

Assay type in all cases: in vivo, Vietnamese minipigs
The subject of assay [1] is protein HMGB-1. As to the kind of experiment: Plasma HMGB-1 in porcine cardiac tamponade model. Conditions: after cardiac tamponade; AcPepA 4 mg/kg iv; FIG. 4C. As to the method:
(§1) The animals were randomly allocated to either of three experimental groups. Group 1 (n=6) served as the sham^-operated group to which the same time-frame and sampling conditions as in the groups of 2 (n=7) and 3 (n=6) were applied, but without causing cardiac tamponade. Left lateral thoracotomy was performed in all groups. In the groups which developed cardiac tamponade, namely, in the group not treated with AcPepA (herein also referred to as “non-treated group”) and the group treated with AcPepA (herein also referred to as “treated group”), a cannula was fixed into the pericardial cavity. […] After elapse of this period, the fluid was removed from the pericardial cavity and the animals were monitored for 180 minutes post-tamponade. […]
(§2) Plasma concentrations of protein HMGB-1 were determined with a commercially available protein HMGB-1 ELISA kit (Shino-Test Corporation, Kanagawa, Japan). Plasma levels of big-endothelin, a 38 amino acid precursor protein of endothelin-1 (ET-1), were determined with a commercially available kit (Biochemica Hungaria Kft., Budapest, Hungary). Plasma histamine concentrations were determined by commercially available enzyme-linked immunoassay (Quantikine ultrasensitive EIA kit for histamine; Biomedica Hungaria Kft, Budapest, Hungary).

The subject of assay [2] is myeloperoxidase. As to the kind of experiment: Small intestinal myeloperoxidase activity in porcine cardiac tamponade model. The conditions noted are these: end of the experiment; AcPepA 4 mg/kg iv; FIG. 5A. Here is the method: as §1
The activity of myeloperoxidase, a marker of activation of polymorphonuclear leukocyte, was measured by using ileal biopsy samples according to the method of Kuebler et al. (for review see Kuebler W M, Abels C, Schuerer L, et al: Measurement of neutrophil content in brain and lung tissue by a modified myeloperoxidase assay. Int J Microcirc Clin Exp 1996; 16:89-97). […] Levels of myeloperoxidase were calculated via a calibration curve prepared with an myeloperoxidase standard (Sigma-Aldrich GmbH, Germany). […] Myeloperoxidase activities of such samples were measured as described above, and such data were referred to the protein content.

Assay [3] deals with big-endothelin. Put plainly: Plasma big-endothelin in porcine cardiac tamponade model. The conditions noted are these: after cardiac tamponade; AcPepA 4 mg/kg iv; FIG. 4B. Here is the method: as §1, §2
For assay [4], the system named is whole blood superoxide production. Put plainly: Whole blood superoxide production in porcine cardiac tamponade model. The conditions noted are these: early stage of the post-tamponade phase; AcPepA 4 mg/kg iv; FIG. 5B. As to the method: The animals were randomly allocated to either of three experimental groups. Group 1 (n=6) served as the sham^-operated group to which the same time-frame and sampling conditions as in the groups of 2 (n=7) and 3 (n=6) were applied, but without causing cardiac tamponade. Left lateral thoracotomy was performed in all groups. In the groups which developed cardiac tamponade, namely, in the group not treated with AcPepA (herein also referred to as “non-treated group”) and the group treated with AcPepA (herein also referred to as “treated group”), a cannula was fixed into the pericardial cavity. A pericardial tamponade was induced for 60 minutes by the intrapericardial administration of colloid solution, while the mean artery pressure was kept in the interval of 40 to 45 mmHg. After elapse of this period, the fluid was removed from the pericardial cavity and the animals were monitored for 180 minutes post-tamponade. […]
During the measurements, 10 μL whole blood was added to 1 mL Hank's solution (PAA Cell Culture Company) and the mixture was kept at 37° C. until assay. The chemiluminometric response was measured with a Lumat LB9507 luminometer (Berthold, Germany) during a 30 minute period after addition of 100 μL of lucigenin.

Assay [5] relates to acute porcine model of experimental cardiac tamponade. As to the kind of experiment: Macro-hemodynamic measurements in acute porcine model of experimental cardiac tamponade. Conditions: for central venous pressure: FIG. 2A; for global end-diastolic volume index: FIG. 2B; for superior mesenteric artery blood flow: FIG. 3A; for heart rate: FIG. 2C. As to the method:
Inbred Vietnamese minipigs of both sexes (n=19, weighing 24±3 kg) were fasted for twelve (12) hours preoperatively, but received water ad libitum. Anesthesia was induced with a mixture of ketamine (20 mg/kg) and xylazine (2 mg/kg) im and maintained with a continuous infusion of propofol (50 μL/min/kg iv; 6 mg/kg/hr). After endotracheal intubation, the animals were mechanically ventilated with the tidal volume set at 9±2 mL/kg, and the respiratory rate was adjusted to maintain the end-tidal pressure of CO2 and PaCO2 in the range of 35 to 45 mmHg. Positive end-expiratory pressure was not applied during the period of cardiac tamponade.
The animals were placed in a supine position on an electric heating pad for maintenance of body temperature between 36 and 37° C., and received an infusion of Ringer's lactate at a rate of 10 mL/kg/h during the experiment. The right femoral artery and jugular vein were cannulated for the measurement of mean arterial pressure (“MAP”) and cardiac output (“CO”) by thermodilution (PICCO catheters, PULSION Medical Systems, Germany), and for fluid or drug administration, respectively. […] An ultrasonic flow probe (Transonic Systems Inc., Ithaca, N.Y., U.S.A.) was placed around the exposed SMA to measure the mesenteric blood flow. In all protocols, the animals were monitored continuously, arterial blood gases were regularly checked (Cobas b121, Roche, Austria), and a period of 30 minutes was allowed for recovery from surgery.
The animals were randomly allocated to either of three experimental groups. Group 1 (n=6) served as the sham^-operated group to which the same time-frame and sampling conditions as in the groups of 2 (n=7) and 3 (n=6) were applied, but without causing cardiac tamponade. Left lateral thoracotomy was performed in all groups. In the groups which developed cardiac tamponade, namely, in the group not treated with AcPepA (herein also referred to as “non-treated group”) and the group treated with AcPepA (herein also referred to as “treated group”), a cannula was fixed into the pericardial cavity. A pericardial tamponade was induced for 60 minutes by the intrapericardial administration of colloid solution, while the mean artery pressure was kept in the interval of 40 to 45 mmHg. After elapse of this period, the fluid was removed from the pericardial cavity and the animals were monitored for 180 minutes post-tamponade. Group 3 (the treated group) was treated with AcPepA (a single administration of 4 mg/kg in 5 mL saline iv into the jugular vein in a 5-minute infusion) after 45 minutes of cardiac tamponade. The beginning of tamponade is denoting 0 minute. Vehicle (saline) administration was applied in the groups of 1 and 2 by the same protocol.
Central venous pressure (“CVP”) and blood flow signals were continuously monitored and automatically registered with a computerized data-acquisition system (SPELL Haemosys; Experimetria Ltd., Budapest, Hungary). Mean arterial pressure, cardiac output and heart rate were measured with the PICCO Plus monitoring system (PULSION Medical Systems, Germany) and the global end-diastolic volume index (“GEDI”) was calculated with the PICCO system. Incidentally, central venous pressure was measured in each animal to exclude the influence of these factors, in parallel with the standard ventilation and fluid replacement protocols

Assay [6] has as its system histamine. Put plainly: Plasma histamine in porcine cardiac tamponade model. Conditions: 15 minutes of the post-tamponade phase; AcPepA 4 mg/kg iv; FIG. 4A. As to the method:
as §1, §2

Assay [7] deals with mucosal microcirculation of the small intestine. Put plainly: Intravital videomicroscopy of the intestinal microcirculation in porcine cardiac tamponade model. The conditions noted are these: end of the post-tamponade phase; AcPepA 4 mg/kg iv; FIG. 3B. Here is the method: as §1
An intravital orthogonal polarization spectral imaging technique (Cytoscan A/R, Cytometrics, Philadelphia, Pa., USA) was used for noninvasive visualization of the mucosal microcirculation of the small intestine. […] A 10× objective lens was placed onto the serosal surface of the […], and microscopic images were recorded with an S-VHS video recorder 1 (Panasonic AG-TL 700, Matsushita Electric Ind. Co. Ltd, Osaka, Japan). Quantitative assessment of the microcirculatory parameters was performed off-line by frame-to-frame analysis of the videotaped images. […]

Where [8] appears, read: after relief of cardiac tamponade, AcPepA 4 mg/kg iv.
The mark [9] stands for this setting: during the period of cardiac tamponade, treated group vs sham-operated group.

Where no end group is shown, it is not given here.

With “AcPepA: 17 amino acid peptide (Ala Ser Gly Ala Pro Ala Pro Gly Pro Ala Gly Pro Leu Arg Pro Met Phe), N-terminal alanine acetylated; C5A antagonist (Ac-ASGAPAPGPAGPLRPMF)”, in assay [1], the “plasma levels of protein HMGB-1” value was “significant low values as compared with in the non-treated group and also showed the same values as in the sham-operated group”. Moreover, the “myeloperoxidase activity in small intestine tissue samples (polymorphonuclear leukocyte accumulation)” value in assay [2] was “significant low values in the treated group as compared with in the non-treated group and also showed the same values as in the sham-operated group”. For the same substance, the plasma big-endothelin levels result in assay [3] was “low values as compared with in the non-treated group and also showed the same values as in the sham-operated group”. In assay [4], the “whole blood superoxide production” value was “low as compared with in the non-treated group and also showed the same values as in the sham-operated group”. The central venous pressure result in assay [5] (setting [8]) is “significant high values as compared with in the non-treated group and also showed the same values as in the sham-operated group”; in assay [5] (setting [9]) it was “significant increase of central venous pressure”. The “global end-diastolic volume index” value was “significant high values as compared with in the non-treated group and also showed the same values as in the sham-operated group” in assay [5] (setting [8]); “significant decrease of the global end-diastolic volume index” in assay [5] (setting [9]). Moreover, in assay [5] (after relief of tamponade, AcPepA 4 mg/kg iv single dose after 45 minutes of tamponade, FIG. 1A), the mean arterial pressure entry was “significantly high values as compared with in the non-treated group and also showed the same values as in the sham-operated group”. The cardiac output result in assay [5] (after relief of tamponade, AcPepA 4 mg/kg iv, FIG. 1B) was “not affected”. In addition, the “superior mesenteric artery blood flow” value is listed as “increased significantly after relief of tamponade as compared with in the sham-operated group” in assay [5] (after relief of tamponade, AcPepA 4 mg/kg iv) and “significant decrease in the superior mesenteric artery blood flow” in assay [5] (setting [9]). Moreover, the “decline in cardiac output” value in assay [5] (during 60 minutes of cardiac tamponade, treated group (AcPepA 4 mg/kg iv after 45 minutes of tamponade), vs sham-operated group, FIG. 1B) stood at 65%. The heart rate entry was “significant increase in heart rate” in assay [5] (during cardiac tamponade, treated group vs sham-operated group) and “significant decrease in the post-tamponade period as compared with in the non-treated group” in assay [5] (post-tamponade period, AcPepA 4 mg/kg iv). Besides, the “histamine levels in blood plasma” value in assay [6] is “decreased significantly in the treated group as compared with in the non-treated group and showed the same values as in the sham-operated group”. The “average red blood cell verocity” value in assay [7] was “increased significantly from the baseline level and also as compared with in the non-treated group”.
